In PMC10127554 (Chemical biology & drug design, 2022):

Columns and labels:
[1] = test system: non-cancerous human lung fibroblast cells (HLF); assay: Cytotoxicity, CellTiter Glo assay, non-cancerous human lung fibroblast cells; format: cell-based; conditions: for IC50: Homo sapiens, Fibroblast, 72 h, read-out: IC50 Non-cancerous HLF
NCI-H522 cells [2] = assay: Antiproliferative activity, CellTiter Glo assay, NCI-H522; conditions: Homo sapiens, NCI-H522, 72 h, read-out: IC50 NCIH522
A549 cells = assay: Antiproliferative activity, CellTiter Glo assay, A549; conditions: Homo sapiens, A549, 72 h, read-out: IC50 A549
ACVRL1 = ACVRL1 (Homo sapiens, UniProt P37023); assay: Kinase activity profiling; format: biochemical; conditions: concentration not given
[3] = test system: panel of 485 kinases (including 110 oncogenic kinases); assay: Kinase activity profiling; format: biochemical
NCI-H522 cells [4] = assay: Cell cycle analysis by flow cytometry; format: cell-based, human; conditions: 48hrs at 5 μM
NUAK2 = target: T1, NUAK2 (Homo sapiens, UniProt Q9H093); assay: Kinase activity profiling; format: biochemical; conditions: concentration not given
T1 sequence (Q9H093 1-628): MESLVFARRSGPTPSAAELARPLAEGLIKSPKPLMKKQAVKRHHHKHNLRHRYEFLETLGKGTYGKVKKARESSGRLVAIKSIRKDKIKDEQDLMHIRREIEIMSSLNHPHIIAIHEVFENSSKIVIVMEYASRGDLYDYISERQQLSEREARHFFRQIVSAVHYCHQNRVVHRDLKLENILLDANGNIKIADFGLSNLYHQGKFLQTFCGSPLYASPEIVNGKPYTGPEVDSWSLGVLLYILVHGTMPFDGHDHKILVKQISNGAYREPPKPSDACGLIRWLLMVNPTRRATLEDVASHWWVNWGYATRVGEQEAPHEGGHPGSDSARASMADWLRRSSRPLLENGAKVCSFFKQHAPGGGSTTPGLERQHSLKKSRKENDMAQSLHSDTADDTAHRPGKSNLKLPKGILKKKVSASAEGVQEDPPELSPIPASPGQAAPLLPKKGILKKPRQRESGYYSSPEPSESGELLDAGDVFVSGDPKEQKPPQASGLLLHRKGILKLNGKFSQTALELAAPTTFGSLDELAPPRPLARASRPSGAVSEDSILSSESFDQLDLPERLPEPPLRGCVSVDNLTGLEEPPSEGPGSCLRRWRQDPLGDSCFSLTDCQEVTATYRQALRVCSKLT

ANKK1 = target: T2, ANKK1 (Homo sapiens, UniProt Q8NFD2); assay: Kinase activity profiling; format: biochemical; conditions: concentration not given
T2 sequence (Q8NFD2 1-765): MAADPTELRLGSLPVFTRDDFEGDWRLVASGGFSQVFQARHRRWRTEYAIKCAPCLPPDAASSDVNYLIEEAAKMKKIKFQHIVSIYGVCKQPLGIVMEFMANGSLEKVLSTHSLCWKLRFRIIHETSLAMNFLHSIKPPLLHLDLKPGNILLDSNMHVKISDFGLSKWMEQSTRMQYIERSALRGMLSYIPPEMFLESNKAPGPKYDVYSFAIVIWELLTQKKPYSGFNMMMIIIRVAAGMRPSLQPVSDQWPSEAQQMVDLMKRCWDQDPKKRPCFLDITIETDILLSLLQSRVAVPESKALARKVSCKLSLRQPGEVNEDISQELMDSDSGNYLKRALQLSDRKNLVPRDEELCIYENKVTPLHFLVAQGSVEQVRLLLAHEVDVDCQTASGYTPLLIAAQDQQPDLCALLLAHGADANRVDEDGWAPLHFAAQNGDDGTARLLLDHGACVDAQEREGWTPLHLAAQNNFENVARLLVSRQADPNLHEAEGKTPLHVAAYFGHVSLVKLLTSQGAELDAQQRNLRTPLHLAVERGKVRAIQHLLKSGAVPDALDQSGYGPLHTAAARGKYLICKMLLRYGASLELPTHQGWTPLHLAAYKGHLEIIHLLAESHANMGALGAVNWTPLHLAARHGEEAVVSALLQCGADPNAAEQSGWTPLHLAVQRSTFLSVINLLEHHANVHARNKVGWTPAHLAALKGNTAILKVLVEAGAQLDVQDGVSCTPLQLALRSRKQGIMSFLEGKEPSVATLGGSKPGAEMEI

ACVRL1, sequence (P37023 22-503): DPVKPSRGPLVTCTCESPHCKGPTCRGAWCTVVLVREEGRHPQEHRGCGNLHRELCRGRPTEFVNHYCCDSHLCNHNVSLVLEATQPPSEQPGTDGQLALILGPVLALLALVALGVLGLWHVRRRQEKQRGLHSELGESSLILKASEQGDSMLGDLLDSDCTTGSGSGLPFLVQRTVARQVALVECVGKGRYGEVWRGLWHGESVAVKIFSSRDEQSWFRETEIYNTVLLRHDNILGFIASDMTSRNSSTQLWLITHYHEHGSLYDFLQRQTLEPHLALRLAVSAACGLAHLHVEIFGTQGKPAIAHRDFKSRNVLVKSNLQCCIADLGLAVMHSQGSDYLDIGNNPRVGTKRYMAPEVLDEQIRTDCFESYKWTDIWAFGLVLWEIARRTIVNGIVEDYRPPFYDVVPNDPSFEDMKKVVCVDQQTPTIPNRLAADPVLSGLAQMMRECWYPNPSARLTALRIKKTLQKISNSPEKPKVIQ

SMILES	IC50 (NCI-H522 cells [2])	IC50 (A549 cells)	inhibitory activity against ACVRL1 (ACVRL1)	inhibitory activity against NUAK2 (NUAK2)	inhibitory activity against ANKK1 (ANKK1)	IC50 [1]	inhibitory activity over panel of 485 kinases [3]	times less cytotoxic to non-cancerous cells ([1]; non-cancerous cells versus A549 and NCIH522 cancer cell lines)	effect on cell cycle progression (NCI-H522 cells [4])
CC1=NN(c2ccccc2)C(=O)C1(C)O (stereo not drawn) [P1, 4-hydroxy-4,5-dimethyl-2-phenyl-2,4-dihydro-3H-pyrazol-3-one]	> 100 µM	> 100 µM				> 100 µM			
CCCC1=NN(c2ccccc2)C(=O)C1 [P2, 2-phenyl-5-propyl-2,4-dihydro-3H-pyrazol-3-one]	> 100 µM	> 100 µM							
O=C1CC(c2ccccc2)=NN1c1ccccc1 [P3, 2,5-diphenyl-2,4-dihydro-3H-pyrazol-3-one]	17 ± 2.61 µM	10.3 ± 1.55 µM				25.1 ± 1.39 µM			
O=C1CC(c2ccccc2)=NN1c1ccc(Cl)cc1 [P5, 2-(4-chlorophenyl)-5-phenyl-2,4-dihydro-3H-pyrazol-3-one]	4.5 ± 1.16 µM	1.98 ± 1.1 µM				0.99 ± 1.25 µM			
O=C1CC(c2ccc([N+](=O)[O-])cc2)=NN1c1ccccc1 [P6, 5-(4-nitrophenyl)-2-phenyl-2,4-dihydro-3H-pyrazol-3-one]	40.5 ± 2.3 µM	39.6 ± 1.05 µM				26.8 ± 1.4 µM			
O=C1CC(c2ccc(F)cc2)=NN1c1ccccc1 [P8, 5-(4-fluorophenyl)-2-phenyl-2,4-dihydro-3H-pyrazol-3-one]	17.9 ± 3.36 µM	9.51 ± 3.12 µM				17.7 ± 1.1 µM			
COc1ccc(C2=NN(c3ccccc3)C(=O)C2)cc1 [P9, 5-(4-methoxyphenyl)-2-phenyl-2,4-dihydro-3H-pyrazol-3-one]	51.2 ± 3.06 µM	42.2 ± 2.76 µM							
COc1cccc(C2=NN(c3ccccc3)C(=O)C2)c1 [P10, 5-(3-methoxyphenyl)-2-phenyl-2,4-dihydro-3H-pyrazol-3-one]	> 100 µM	> 100 µM							
O=C1CC(c2cc(F)c(F)c(F)c2F)=NN1c1ccccc1 [P12, 2-phenyl-5-(2,3,4,5-tetrafluorophenyl)-2,4-dihydro-3H-pyrazol-3-one]	9.9 ± 2.44 µM	8.6 ± 0.59 µM				8.52 ± 1.09 µM			
O=C1CC(c2ccc(Br)cc2)=NN1c1cc(Cl)cc(Cl)c1 [P17, 5-(4-bromophenyl)-2-(3,5-dichlorophenyl)-2,4-dihydro-3H-pyrazol-3-one]	5.07 ± 1.18 µM	5.56 ± 0.07 µM				6.94 ± 1.12 µM			
CN(C)C/C=C/C(=O)Nc1cc2c(Nc3ccc(F)c(Cl)c3)ncnc2cc1O[C@H]1CCOC1 [PC-1, Afatinib, reference compound]	5.34 ± 0.94 µM	8.46 ± 2.03 µM				12.2 ± 3.12 µM			

More lines, main results first:

IC50 (NCI-H522 cells [2])	IC50 (A549 cells)	inhibitory activity against ACVRL1 (ACVRL1)	inhibitory activity against NUAK2 (NUAK2)	inhibitory activity against ANKK1 (ANKK1)	SMILES	IC50 [1]	inhibitory activity over panel of 485 kinases [3]	times less cytotoxic to non-cancerous cells ([1]; non-cancerous cells versus A549 and NCIH522 cancer cell lines)	effect on cell cycle progression (NCI-H522 cells [4])
4.93 ± 1.13 µM	2.61 ± 1.12 µM				O=C1CC(c2ccccc2)=NN1c1ccc(Br)cc1 [P4, 2-(4-bromophenyl)-5-phenyl-2,4-dihydro-3H-pyrazol-3-one]	0.72 ± 1.07 µM			
4.7 ± 1.38 µM	6.35 ± 0.85 µM	47%	41%	50%	O=C1CC(c2ccc(Br)cc2)=NN1c1ccccc1 [P7, 5-(4-bromophenyl)-2-phenyl-2,4-dihydro-3H-pyrazol-3-one]	61.3 ± 1.08 µM	no potential inhibitory activity against any tested kinase	10 times	more cell population in G0/G1 phase
4.88 ± 1.73 µM	5.98 ± 0.84 µM				O=C1CC(c2ccc(C(F)(F)F)cc2)=NN1c1ccccc1 [P11, 2-phenyl-5-(4-(trifluoromethyl)phenyl)-2,4-dihydro-3H-pyrazol-3-one]	26.1 ± 1.12 µM			more cell population in G0/G1 phase
3.7 ± 0.34 µM	2.67 ± 0.51 µM				O=C1CC(c2ccc(F)cc2)=NN1c1ccc(Br)cc1 [P13, 2-(4-bromophenyl)-5-(4-fluorophenyl)-2,4-dihydro-3H-pyrazol-3-one]	3.57 ± 1.15 µM			more cell population in G2/M phase
2.41 ± 0.57 µM	2.73 ± 0.28 µM				O=C1CC(c2ccc(Br)cc2)=NN1c1ccc(Br)cc1 [P14, 2,5-bis(4-bromophenyl)-2,4-dihydro-3H-pyrazol-3-one]	2.55 ± 1.1 µM			more cell population in G2/M phase
2.95 ± 0.18 µM	3.37 ± 0.1 µM				O=C1CC(c2ccc(Br)cc2)=NN1c1ccc(C(F)(F)F)cc1 [P16, 5-(4-bromophenyl)-2-(4-(trifluoromethyl)phenyl)-2,4-dihydro-3H-pyrazol-3-one]	1.45 ± 1.14 µM			
